# Results from ChEMBL document CHEMBL4257487, “Structure-guided design of a potent peptide inhibitor targeting the interaction between CRK and ABL kinase” (Medchemcomm, 2018).
# The source made the active and inactive calls. The calls are words filed in the database; no cut-off is given here. Where a SMILES comes first, the peptide text is derived from it.
# Columns and labels:
# Adapter molecule crk [1] = target: T1, Adapter molecule crk (Homo sapiens, UniProt P46108); experiment: Binding affinity to recombinant human CRK-2 nSH3 domain (1 to 304 residues) expressed in Escherichia coli by tryptophan fluorescence quenching assay
# Adapter molecule crk [2] = target: T1, Adapter molecule crk; experiment: Binding affinity to recombinant human CRK-2 nSH3 domain (1 to 304 residues) expressed in Escherichia coli by NMR analysis
# Adapter molecule crk [3] = target: T1, Adapter molecule crk; experiment: Binding affinity to human c-CRK N-terminal SH3 domain expressed in Escherichia coli BL21 (DE3) by tryptophan fluorescence quenching assay
# Adapter molecule crk [4] = target: T1, Adapter molecule crk; experiment: Binding affinity to recombinant human CRK-2 nSH3 domain (1 to 304 residues) expressed in Escherichia coli at 25 degC by tryptophan fluorescence quenching assay
# Adapter molecule crk [5] = target: T1, Adapter molecule crk; experiment: Ratio of Kd for recombinant human CRK-2 nSH3 domain (1 to 304 residues) expressed in Escherichia coli at 35 degC in presence of 1 M NaCl to Kd for recombinant human CRK-2 nSH3 domain (1 to 304 residues) expressed in Escherichia coli at 35 degC in presence of 80 mM NaCl
# Adapter molecule crk [6] = target: T1, Adapter molecule crk; experiment: Binding affinity to recombinant human CRK-2 nSH3 domain (1 to 304 residues) expressed in Escherichia coli assessed as inhibition of interaction with Abl by measuring Abl-mediated CRK-2 phosphorylation at Y221 residue at 1 uM after 10 to 30 mins by PAGE analysis (reference value: 62%); set-up: scale not given: the % may be the effect or the level left
# Adapter molecule crk [7] = target: T1, Adapter molecule crk; experiment: Binding affinity to recombinant human CRK-2 nSH3 domain (1 to 304 residues) expressed in Escherichia coli assessed as inhibition of Abl T315I mutant-mediated CRK-2 phosphorylation at Y221 residue at 1 uM after 10 to 30 mins by PAGE analysis
# T1 sequence (P46108 whole entry, the tested form may be a part): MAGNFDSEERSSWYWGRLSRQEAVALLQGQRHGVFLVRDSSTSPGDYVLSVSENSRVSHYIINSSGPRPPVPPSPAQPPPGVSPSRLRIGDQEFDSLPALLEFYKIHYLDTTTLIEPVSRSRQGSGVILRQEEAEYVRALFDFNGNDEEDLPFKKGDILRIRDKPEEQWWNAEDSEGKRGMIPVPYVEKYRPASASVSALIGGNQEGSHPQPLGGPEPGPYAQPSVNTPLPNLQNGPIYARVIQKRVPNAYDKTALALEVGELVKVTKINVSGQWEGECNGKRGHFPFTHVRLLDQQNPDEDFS
Kd (Adapter molecule crk [1]),Activity (Adapter molecule crk [2]),Kd (Adapter molecule crk [3]),Kd (Adapter molecule crk [4]),Ratio (Adapter molecule crk [5]),Activity (Adapter molecule crk [6]),inhibition (Adapter molecule crk [7]),SMILES
400 nM,Active,,,,,,CC(C)C[C@H](NC(=O)[C@H](C)NC(=O)[C@@H]1CCCN1C(=O)[C@@H]1CCCN1C(=O)[C@@H]1CCCN1C(=O)[C@H](CO)NC(=O)[C@H](CC(N)=O)NC(=O)[C@@H](N)CC(=O)O)C(=O)N1CCC[C@H]1C(=O)N[C@@H](CCCCN)C(=O)N[C@@H](CCCCN)C(=O)N[C@@H](CCCNC(=N)N)C(=O)N[C@@H](CCC(N)=O)C(=O)N[C@@H](CO)C(=O)N[C@@H](Cc1ccc(O)cc1)C(=O)O (H-DNSPPPALPKKRQSY-OH)
,Active,1900 nM,,,,,CC(C)C[C@H](NC(=O)[C@H](C)NC(=O)[C@@H]1CCCN1C(=O)[C@@H]1CCCN1C(=O)[C@@H]1CCCN1)C(=O)N1CCC[C@H]1C(=O)N1CCC[C@H]1C(=O)N[C@@H](CCCCN)C(=O)N[C@@H](CCCCN)C(=O)N[C@@H](CCCNC(=N)N)C(=O)O
9 nM,Active,,9 nM,50,21%,Active,CC(C)C[C@H](NC(=O)[C@H](C)NC(=O)[C@@H]1CCCN1C(=O)[C@@H]1CCCN1C(=O)[C@@H](N)CO)C(=O)N1CCC[C@H]1C(=O)N[C@@H](CCCCN)C(=O)N[C@@H](CCCCN)C(=O)N[C@@H](CCCNC(=N)N)C(=O)N[C@@H](CCC(N)=O)C(=O)N[C@@H](CO)C(=O)N[C@@H](Cc1ccc(O)cc1)C(=O)N[C@@H](CCCNC(=N)N)C(=O)N[C@@H](CCCNC(=N)N)C(=O)O (H-SPPALPKKRQSYRR-OH)
,,,,,33%,inactive,Cc1ccc(NC(=O)c2ccc(CN3CCN(C)CC3)cc2)cc1Nc1nccc(-c2cccnc2)n1
